According to ChEMBL document CHEMBL6121057, “Discovery of an Orally Bioavailable STING Inhibitor with In Vivo Anti-Inflammatory Activity in Mice with STING-Mediated Inflammation” (J Med Chem, 2025):

Legend:
[1] = Metabolic stability in human liver microsomes assessed as half life; format: ADME, Microsome
[2] = Metabolic stability in human liver microsomes assessed as intrinsic clearance; format: ADME, Microsome; details: read-out: CLH
[3] = Half life in Sprague-Dawley rat at 2 mg/kg, iv measured upto 60 mins by LC-MS/MS analysis; format: ADME, organism-based; details: in vivo
[4] = Tmax in Sprague-Dawley rat at 2 mg/kg, iv measured […] by LC-MS/MS analysis; format: ADME, organism-based; details: in vivo
[5] = Cmax in Sprague-Dawley rat at 2 mg/kg, iv measured […] by LC-MS/MS analysis; format: ADME, organism-based; details: in vivo
[6] = AUC (0 to t) in Sprague-Dawley rat at 2 mg/kg, iv measured upto 60 mins by LC-MS/MS analysis; format: ADME, organism-based; details: in vivo
[7] = Tmax in Sprague-Dawley rat at 10 mg/kg, po measured […] by LC-MS/MS analysis; format: ADME, organism-based; details: in vivo
[8] = Cmax in Sprague-Dawley rat at 10 mg/kg, po measured […] by LC-MS/MS analysis; format: ADME, organism-based; details: in vivo
[9] = AUC (0 to t) in Sprague-Dawley rat at 10 mg/kg, po measured upto 60 mins by LC-MS/MS analysis; format: ADME, organism-based; details: in vivo
[10] = Oral bioavailability in Sprague-Dawley rat at 10 mg/kg measured […] by LC-MS/MS analysis; format: ADME, organism-based; details: in vivo

SMILES | half-life [1] [min] | CLint scaled [2] [mL/min/kg] | half-life [3] [min] | Tmax [4] [min] | Cmax [5] [ng/mL] | AUC(0-t) at 1 h [6] [ng·h/mL] | Tmax [7] [min] | Cmax [8] [ng/mL] | AUC(0-t) at 1 h [9] [ng·h/mL] | bioavailability [10] [%]
O=C(Nc1ccc(C2CCC(F)(F)CC2)cc1)Nc1c[nH]c2ccc(F)cc12 | 41 | 21.7 |  |  |  |  |  |  |  | 
O=C(Nc1ccc(C(F)(F)F)cc1)Nc1c[nH]c2ccc(Cl)cc12 | 139 | 6.4 | 48 | 6 | 842 | 536 | 252 | 37 | 125 | 4.6
